Measurements taken from patent US8809336B2, “Ortho-condensed pyridine and pyrimidine derivatives (e.g., purines) as protein kinases inhibitors” (Astex Therapeutics Limited, priority 2004, dated 2014).
pIC50: −log10 of the molar value. Where two headings read alike, the source gives them in different places.

What was measured:
[1] = biological target: T1, PKB-PIF fusion protein (Homo sapiens, UniProt P31751); experiment: Measurement of PKB kinase inhibitory activity (IC50), 33P-ATP phosphocellulose filter assay; assay type: biochemical
T1 construct: PIF (fusion partner); made in house
Protocol: The inhibition of protein kinase B (PKB) activity by compounds can be determined essentially as described by Andjelkovic et al. (Mol. Cell. Biol. 19, 5061-5072 (1999)) but using a fusion protein described as PKB-PIF and described in full by Yang et al (Nature Structural Biology 9, 940-944 (2002)). […] A final concentration of 0.6 nM enzyme is used in a buffer that includes 20 mM MOPS pH 7.2, 30 μM ATP/γ^33P-ATP and 25 μM substrate.
Compounds are added in DMSO solution to a final DMSO concentration of 2.5%. The reaction is allowed to proceed for 20 minutes before addition of excess orthophosphoric acid to quench activity. The reaction mixture is transferred to a phosphocellulose filter plate where the peptide binds and the unused ATP is washed away. After washing, scintillant is added and the incorporated activity measured by scintillation counting.
The % inhibition of the PKB activity is calculated and plotted in order to determine the concentration of test compound required to inhibit 50% of the PKB activity (IC50).

[2] = biological target: T2, PKA catalytic domain (Homo sapiens, UniProt P17612); experiment: Measurement of PKA kinase inhibitory activity (IC50), 33P-ATP filter plate assay; assay type: biochemical
T2 construct: using the PKA catalytic domain from Upstate Biotechnology (#14-440); purchased Upstate Biotechnology 14-440
Protocol: A final concentration of 1 nM enzyme is used in a buffer that includes 20 mM MOPS pH 7.2, 40 μM ATP/γ^33P-ATP and […] substrate. Compounds are added in dimethylsulphoxide (DMSO) solution to a final DMSO concentration of 2.5%. The reaction is allowed to proceed for 20 minutes before addition of excess orthophosphoric acid to quench activity. Unincorporated γ^33P-ATP is then separated from phosphorylated proteins on a Millipore MAPH filter plate. The plates are washed, scintillant is added and the plates are then subjected to counting on a Packard Topcount.

[3] = 0.6 nM enzyme, 30 μM ATP, 25 μM AKTide-2T substrate, 20 minutes, read-out: IC50, inhibition of PKB activity
[4] = 1 nM enzyme, 40 μM ATP, 20 minutes, read-out: IC50, inhibition of PKA activity

T1 sequence (P31751 with tags, fused parts or gaps limits assumed): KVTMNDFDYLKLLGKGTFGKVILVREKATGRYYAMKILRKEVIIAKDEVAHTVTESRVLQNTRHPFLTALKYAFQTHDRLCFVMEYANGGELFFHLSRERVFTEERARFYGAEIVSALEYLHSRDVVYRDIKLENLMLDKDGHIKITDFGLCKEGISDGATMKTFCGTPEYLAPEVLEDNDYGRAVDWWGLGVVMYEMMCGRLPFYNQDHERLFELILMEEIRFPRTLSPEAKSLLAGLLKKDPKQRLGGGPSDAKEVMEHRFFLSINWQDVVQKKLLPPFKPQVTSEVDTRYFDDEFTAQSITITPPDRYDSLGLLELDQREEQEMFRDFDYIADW

Row | Structure (SMILES) | pIC50 [1, 3] | pIC50 [2, 4] | pIC50 [1] | pIC50 [2]
1 | c1ccc(CNC2CCN(c3ncnc4[nH]cnc34)CC2)cc1 [Example 2, Benzyl-[1-(9H-purin-6-yl)-piperidin-4-yl]-amine] | > 5.00 | – | – | –
2 | NC1CCN(c2ncnc3[nH]c(=O)[nH]c23)CC1 [Example 4, 6-(4-Aminopiperidin-1-yl)-7,9-dihydropurin-8-one] | > 5.00 | > 4.30 | – | –
3 | O=c1[nH]c2ncnc(N3CCC(O)(Cc4ccccc4)CC3)c2[nH]1 [Example 5, 6-(4-Benzyl-4-hydroxypiperidin-1-yl)-7,9-dihydropurin-8-one] | > 4.30 | > 4.30 | – | –
4 | O=c1[nH]c2ncnc(N3CCNCC3)c2[nH]1 [Example 6, 6-(Piperazin-1-yl)-7,9-dihydropurin-8-one] | > 5.00 | > 5.00 | – | –
5 | O=c1[nH]c2ncnc(N3CCN[C@H](COCc4ccccc4)C3)c2[nH]1 [Example 7, (3S)-6-(3-Benzyloxymethylpiperazin-1-yl)-7,9-dihydropurin-8-one] | > 4.30 | > 4.30 | – | –
6 | O=c1[nH]c2ncnc(N3CCC(NCc4cccc(Cl)c4)CC3)c2[nH]1 [Example 10, 6-[4-(3-Chlorobenzylamino)-piperidin-1-yl]-7,9-dihydro-purin-8-one] | > 5.00 | > 5.00 | – | –
7 | NC1CCN(c2ncnc3[nH]ccc23)CC1 [Example 12, 1-(7H-Pyrrolo[2,3-d]pyrimidin-4-yl)-piperidin-4-ylamine] | > 5.00 | > 5.00 | – | –
8 | NCC1(c2ccc(Cl)cc2)CCN(c2ncnc3[nH]cnc23)CC1 [Example 15, C-[4-(4-Chloro-phenyl)-1-(9H-purin-6-yl)-piperidin-4-yl]-methylamine] | > 5.00 | – | – | –
9 | NC1(Cc2ccccc2)CCN(c2ncnc3[nH]cnc23)CC1 [Example 16, 4-Benzyl-1-(9H-purin-6-yl)piperidin-4-ylamine] | > 5.00 | – | – | –
10 | NCC1(Cc2ccc(Cl)cc2)CCN(c2ncnc3[nH]ccc23)CC1 [Example 19, C-[4-(4-Chlorobenzyl)-1-(7H-pyrrolo[2,3-d]pyrimidin-4-yl)piperidin-4-yl]methylamine] | > 5.00 | > 5.00 | – | –
11 | NCC1(Cc2ccc(Cl)cc2)CCN(c2ncnc3[nH]cnc23)CC1 [Example 23, C-[4-(4-Chlorobenzyl)-1-(9H-purin-6-yl)piperidin-4-yl]methylamine] | > 5.00 | – | – | –
12 | N#CC1(c2ccc(Cl)cc2)CCN(c2ncnc3[nH]ccc23)CC1 [Example 24, 4-(4-Chlorophenyl)-1-(7H-pyrrolo[2,3-d]pyrimidin-4-yl)piperidine-4-carbonitrile] | – | – | > 5.00 | –
13 | NC1(c2ccc(Cl)cc2)CCN(c2ncnc3[nH]ccc23)CC1 [Example 25, 4-(4-Chlorophenyl)-1-(7H-pyrrolo[2,3-d]pyrimidin-4-yl)piperidin-4-ylamine] | – | – | > 5.00 | > 5.00
14 | NCC1(c2ccc(Cl)c(Cl)c2)CCN(c2ncnc3[nH]cnc23)CC1 [Example 29, C-[4-(3,4-Dichlorophenyl)-1-(9H-purin-6-yl)piperidin-4-yl]methylamine] | > 5.00 | – | – | –
15 | NCC1(c2ccc(OC(F)(F)F)cc2)CCN(c2ncnc3[nH]ccc23)CC1 [Example 30] | > 5.00 | – | – | –
16 | NCC1(c2ccc(C(F)(F)F)cc2)CCN(c2ncnc3[nH]cnc23)CC1 [Example 33, C-[1-(9H-Purin-6-yl)-4-(4-trifluoromethylphenyl)piperidin-4-yl]methylamine] | > 5.00 | – | – | –
17 | NCC1(c2cccc(C(F)(F)F)c2)CCN(c2ncnc3[nH]ccc23)CC1 [Example 34, C-[1-(7H-Pyrrolo[2,3-d]pyrimidin-4-yl)-4-(3-trifluoromethylphenyl)piperidin-4-yl]methylamine] | > 5.00 | – | – | –
18 | COc1ccc(C2(CN)CCN(c3ncnc4[nH]cnc34)CC2)cc1 [Example 39, C-[4-(4-Methoxyphenyl)-1-(9H-purin-6-yl)piperidin-4-yl]methylamine] | > 5.00 | – | – | –
19 | NCC1(c2ccc(OCc3ccccc3)cc2)CCN(c2ncnc3[nH]cnc23)CC1 [Example 41, C-[4-(4-Benzyloxyphenyl)-1-(9H-purin-6-yl)piperidin-4-yl]methylamine] | > 5.00 | – | – | –
20 | NCC1(Cc2ccc(OC(F)(F)F)cc2)CCN(c2ncnc3[nH]cnc23)CC1 [Example 48, C-[1-(9H-Purin-6-yl)-4-(4-trifluoromethoxybenzyl)piperidin-4-yl]methylamine] | > 5.00 | – | – | –

Second part, led by results:

Row | pIC50 [1, 3] | pIC50 [2, 4] | Structure (SMILES) | pIC50 [1] | pIC50 [2]
21 | > 5.00 | > 5.00 | CNC1CCN(c2ncnc3[nH]cnc23)CC1 [Example 1, Methyl-[1-(9H-purin-6-yl)-piperidin-4-yl]-amine] | – | –
22 | > 5.00 | > 5.00 | O=c1[nH]c2ncnc(N3CCC(NCCc4ccccc4)CC3)c2[nH]1 [Example 8, 6-(4-Phenethylaminopiperidin-1-yl)-7,9-dihydro-purin-8-one] | – | –
23 | > 4.30 | > 4.30 | O=c1[nH]c2ncnc(N3CCC(NCc4ccccc4Cl)CC3)c2[nH]1 [Example 9, 6-[4-(2-Chlorobenzylamino)-piperidin-1-yl]-7,9-dihydro-purin-8-one] | – | –
24 | > 5.00 | > 5.00 | NC1CCN(c2ncnc3[nH]ncc23)CC1 [Example 11, 1-(1H-Pyrazolo[3,4-d]pyrimidin-4-yl)-piperidin-4-ylamine] | – | –
25 | > 5.00 | > 5.00 | NC1CCN(c2ccnc3[nH]ccc23)CC1 [Example 13, 1-(1H-Pyrrolo[2,3-b]pyridin-4-yl)-piperidin-4-ylamine] | – | –
26 | > 5.00 | > 5.00 | NCC1(c2ccc(Cl)cc2)CCN(c2ncnc3[nH]ccc23)CC1 [Example 14, C-[4-(4-Chloro-phenyl)-1-(7H-pyrrolo[2,3-d]pyrimidin-4-yl)-piperidin-4-yl]-methylamine] | – | –
27 | > 5.00 | > 5.00 | NC1(Cc2ccc(Cl)cc2)CCN(c2ncnc3[nH]cnc23)CC1 [Example 18, 4-(4-Chlorobenzyl)-1-(9H-purin-6-yl)piperidin-4-yl amine] | – | –
28 | > 5.00 | > 5.00 | NCC1(c2ccc(Cl)cc2)CCN(c2ncnc3[nH]c(=O)[nH]c23)CC1 [Example 20, 6-[4-Aminomethyl-4-(4-chlorophenyl)piperidin-1-yl]-7,9-dihydropurin-8-one] | – | –
29 | > 5.00 | – | NCC1(c2ccc(Cl)cc2)CCN(c2ccnc3[nH]ccc23)CC1 [Example 21, C-[4-(4-Chlorophenyl)-1-(1H-pyrrolo[2,3-b]pyridin-4-yl)piperidin-4-yl]methylamine] | – | –
30 | > 5.00 | – | CCn1c(=O)[nH]c2ncnc(N3CCC(CN)(c4ccc(Cl)cc4)CC3)c21 [Example 22, 6-[4-Aminomethyl-4-(4-chlorophenyl)piperidin-1-yl]-7-ethyl-7,9-dihydro-purin-8-one] | – | –
31 | > 5.00 | – | NCC1(c2cccc(Cl)c2)CCN(c2ncnc3[nH]cnc23)CC1 [Example 27, C-[4-(3-Chlorophenyl)-1-(9H-purin-6-yl)piperidin-4-yl]methylamine] | – | –
32 | > 5.00 | – | NCC1(c2cccc(C(F)(F)F)c2)CCN(c2ncnc3[nH]cnc23)CC1 [Example 35, C-[1-(9H-Purin-6-yl)-4-(3-trifluoromethylphenyl)piperidin-4-yl]methylamine] | – | –
33 | > 5.00 | – | NCC1(c2ccc(F)c(F)c2)CCN(c2ncnc3[nH]ccc23)CC1 [Example 36, C-[4-(3,4-Difluorophenyl)-1-(7H-pyrrolo[2,3-d]pyrimidin-4-yl)piperidin-4-yl]methylamine] | – | –
34 | > 5.00 | – | NCC1(c2ccc(F)c(F)c2)CCN(c2ncnc3[nH]cnc23)CC1 [Example 37, C-[4-(3,4-Difluorophenyl)-1-(9H-purin-6-yl)piperidin-4-yl]methylamine] | – | –
35 | > 5.00 | – | CC(C)NCC1(c2ccc(Cl)cc2)CCN(c2ncnc3[nH]ccc23)CC1 [Example 43, [4-(4-Chlorophenyl)-1-(7H-pyrrolo[2,3-d]pyrimidin-4-yl)-piperidin-4-ylmethyl]-isopropylamine] | – | –
36 | > 5.00 | – | NCC1(Cc2ccc(Cl)c(Cl)c2)CCN(c2ncnc3[nH]ccc23)CC1 [Example 45, C-[4-(3,4-Dichlorobenzyl)-1-(7H-pyrrolo[2,3-d]pyrimidin-4-yl)piperidin-4-yl]methylamine] | – | –
37 | > 5.00 | – | NCC1(Cc2ccc(Cl)c(Cl)c2)CCN(c2ncnc3[nH]cnc23)CC1 [Example 46, C-[4-(3,4-Dichlorobenzyl)-1-(9H-purin-6-yl)piperidin-4-yl]methylamine] | – | –
38 | > 5.00 | – | NCC1(Cc2ccc(OC(F)(F)F)cc2)CCN(c2ncnc3[nH]ccc23)CC1 [Example 47, C-[1-(7H-Pyrrolo[2,3-d]pyrimidin-4-yl)-4-(4-trifluoromethoxybenzyl)piperidin-4-yl]methylamine] | – | –
39 | > 5.00 | – | NC1(Cc2ccc(Cl)c(Cl)c2)CCN(c2ncnc3[nH]cnc23)CC1 [Example 50, 4-(3,4-Dichlorobenzyl)-1-(9H-purin-6-yl)piperidin-4-yl amine] | – | –
40 | > 5.00 | – | NC1(Cc2ccc(OC(F)(F)F)cc2)CCN(c2ncnc3[nH]cnc23)CC1 [Example 52, 1-(9H-Purin-6-yl)-4-(4-trifluoromethoxybenzyl)piperidin-4-ylamine] | – | –
